Converted amounts (≈) assume the structure as drawn.

For this series the following is noted: buffer; pH 7.4; 200.0 µM.
As a reminder, the solubility (kinetic) is the concentration staying in solution when a stock, usually in DMSO, is diluted into the medium. With `CC1(C)CC(=O)C=C(Nc2ccccc2)C1`, the solubility (kinetic) is greater than 32.3 µg/mL. The molecule `Cc1ccc(NC(=O)CCC(=O)c2cccs2)c(O)c1` had a kinetic solubility of 24.2 µg/mL (≈ 83.6 µM). `CCOc1ccccc1C(=O)NCC(=O)N1CCC(C)CC1` came in with a solubility (kinetic) greater than 45.7 µg/mL.

For the molecule `O=C(Cc1ccc(-c2ccccc2)cc1)NC1CCCC1`, the kinetic solubility was less than 0.6 µg/mL. In turn, `N#CCOC(=O)[C@H](Cc1ccccc1)N1C(=O)c2ccccc2C1=O` gave a kinetic solubility of 47.3 µg/mL (≈ 141 µM). `COc1ccc(C=O)cc1CSc1ncccc1C(=O)O` yielded a solubility (kinetic) greater than 45.5 µg/mL. Next, `OC1=C(O)c2nc3cc(C(F)(F)F)ccc3nc21`: greater than 38.1 µg/mL; `N#Cc1cnc(NOCc2ccc(Cl)cc2)nc1`: 7.4 µg/mL (≈ 28.4 µM).

Molecule `CCCN1CCC(NC(=O)Nc2cc(Cl)ccc2OC)CC1` gave a kinetic solubility of 47.6 µg/mL (≈ 146 µM). Next, `COc1ccccc1-n1cnc2sc(C)c(C)c2c1=O`: 15.1 µg/mL (≈ 52.7 µM); `O=c1c2ccccc2ncn1Cc1ccc2c(c1)OCO2`: 15.1 µg/mL (≈ 53.9 µM); `O=c1oc2ccccc2cc1-c1csc(Nc2ccc(O)cc2)n1`: 1.7 µg/mL (≈ 5.05 µM). Turning to `Cc1ccc(S(=O)(=O)Nc2cccc(S(=O)(=O)Nc3ccccc3C(=O)O)c2)c(C)c1`, the solubility (kinetic) was greater than 69.1 µg/mL. `C=CCN1CCN(C(=O)c2cc3c(s2)CCC(CC)C3)CC1` (stereo not given) returned a kinetic solubility of 46.3 µg/mL (≈ 145 µM). In turn, `CCCCN(C)Cc1cc(=O)oc2ccc3ccccc3c12` registered a solubility (kinetic) of 1.8 µg/mL (≈ 6.09 µM). Against the preceding molecule, the solubility kinetic is about 26-fold lower. The molecule `Cc1cccc(N2C(=O)CC(c3ccc(F)cc3)C3=C2COC3=O)c1` (stereo not given) had a solubility (kinetic) greater than 50.6 µg/mL. On to `NC(=NCc1ccco1)NC(=O)c1ccc(Cl)cc1`, for which the solubility (kinetic) is greater than 41.7 µg/mL. Molecule `Nc1cc(Cl)ccc1C(=O)OCC(=O)NC1CCCCC1` registered a kinetic solubility of 0.5 µg/mL (≈ 1.61 µM). Next, `Cc1ccc(C(=O)NCC(=O)N2CCCN(C)CC2)cc1C`: greater than 45.5 µg/mL. Regarding `Cc1ccc(OCC(=O)NCCCNC(=O)c2ccco2)cc1`, the solubility (kinetic) was greater than 47.5 µg/mL. As for `CCN(CC)CCCNc1ncnc2ccccc12.Cl`, the solubility (kinetic) is 42.3 µg/mL.

Molecule `O=C(O)C1Cc2[nH]cnc2C(c2cccc([N+](=O)[O-])c2)N1` (stereo not given) came in with a solubility (kinetic) of 43.1 µg/mL (≈ 150 µM). This solubility kinetic and that of the molecule before are within 1.5-fold of each other. The figure for `COC(=O)[C@@H](NC(=O)NC1CCCCC1C)C(C)C` (stereo not given in full) is greater than 40.6 µg/mL; for `Brc1cc2c(cc1CSc1ncccn1)OCO2` it is 0.9 µg/mL (≈ 2.77 µM). As to `COc1ccc(NC(=O)c2oc3ccccc3c2CSC)cn1`, the kinetic solubility was determined as 3 µg/mL (≈ 9.14 µM). With `COCCn1c(C)cc(C(=O)COC(=O)c2cccnc2SC)c1C`, the solubility (kinetic) stood at 5.2 µg/mL (≈ 14.3 µM). As for `CCOc1ccc(C(=O)NCC(=O)N2CCC(C)CC2)cc1OCC`, the kinetic solubility is greater than 52.3 µg/mL. Regarding `Cc1[nH]c2ccc(Cl)cc2c(=O)c1CN1CCCC1`, the kinetic solubility came to 38.7 µg/mL (≈ 140 µM). The figure for `N#C/C(=C\c1ccccc1)c1ccccn1` is 8.6 µg/mL (≈ 41.7 µM); for `CCS(=O)(=O)c1ccc2oc(Nc3cccc(OC)c3)nc2c1` it is 8.2 µg/mL (≈ 24.7 µM). Molecule `CCOc1cnc(C(=O)NNC(=O)c2ccccc2Br)o1` yielded a kinetic solubility greater than 53.1 µg/mL. `Cc1ccnc(NS(=O)(=O)c2ccc3ccccc3c2)n1`: the solubility (kinetic) was found to be 28.1 µg/mL (≈ 93.9 µM). Next, `COc1cccc2cc(C(=O)NCCc3ccccc3)c(=O)oc12`: less than 0.7 µg/mL; `CC1CC(CN)CC(CO)C1` (stereo not given): greater than 23.6 µg/mL.

`O=C(CSCc1ccco1)N1CCc2ccccc21`: the solubility (kinetic) was 36.9 µg/mL (≈ 135 µM). Next, `CCCn1c(N)c(N2CCCCC2)c(=O)n(CC(=O)Nc2cccc(S(=O)(=O)N(C)C)c2)c1=O`: 68.3 µg/mL (≈ 139 µM). Next, `O=C(O)CCN1C(=O)c2ccc(Oc3ccc([N+](=O)[O-])cc3)cc2C1=O`: 52.9 µg/mL (≈ 148 µM); `CN1CCN(C(=O)NCC23CC4CC(CC(C4)C2)C3)CC1`: greater than 43.7 µg/mL; `OCCN1CCN(C(c2cccs2)c2ccc3cccnc3c2O)CC1` (stereo not given): 44 µg/mL (≈ 119 µM). `CCOc1ccccc1NC(=O)NCc1ccc2c(c1)OCO2` came in with a kinetic solubility of 0.8 µg/mL (≈ 2.55 µM).

Molecule `O=C(O)CC1c2ccccc2CCN1S(=O)(=O)c1ccccc1` (stereo not given) registered a kinetic solubility greater than 49.7 µg/mL.

`CN(CCC#N)C(=O)COC(=O)c1ccc2c(c1)C(=O)N(C1CCCCC1)C2=O` yielded a solubility (kinetic) of 16.1 µg/mL (≈ 40.5 µM). Consider `O=C(COc1ccccc1)N1CCN(C(=O)c2ccccc2F)CC1`, for which the kinetic solubility is greater than 51.4 µg/mL. Consider `Cc1nc2ccc(NS(=O)(=O)c3ccc(F)c(C)c3)cc2[nH]1`, for which the solubility (kinetic) was greater than 47.9 µg/mL.

For the molecule `Cc1cccc(CC(C)NC(=O)CCc2nnc(-c3ccccc3)o2)n1` (stereo not given), the kinetic solubility was greater than 52.6 µg/mL. In turn, `CCOC(=O)C1CCN(C(=O)COc2cccc3ccccc23)CC1` gave a solubility (kinetic) of 43.2 µg/mL (≈ 127 µM). For the molecule `O=c1c2ccccc2[nH]c2ccc(O)cc12`, the solubility (kinetic) was greater than 31.7 µg/mL. Next, `COc1cc2c(cc1OC)CN(C(=O)CSc1ccccc1C)CC2`: greater than 53.6 µg/mL; `Cc1cc(C(=O)NC(C)C2CCCO2)no1` (stereo not given): greater than 33.6 µg/mL; `NC(=O)CN(C/C=C/c1ccccc1)C/C=C/c1ccccc1`: 7.4 µg/mL (≈ 24.2 µM). In turn, `O=C(Nc1ccc([N+](=O)[O-])cn1)c1cccnc1` returned a kinetic solubility of 7.2 µg/mL (≈ 29.5 µM). The solubility kinetic values of the last two molecules are within 1.5-fold of each other. The figure for `COc1ccc(NC(=O)Nc2cc(F)ccc2C)cc1` is 1.2 µg/mL (≈ 4.37 µM); for `CSc1nsc(SCC(=O)Nc2ccccc2F)n1` it is 38 µg/mL (≈ 120 µM); for `CCN(c1cccc2ccccc12)S(=O)(=O)c1ccc(Cl)nc1` it is 7.9 µg/mL (≈ 22.8 µM).

`S=C(NCCc1ccccc1)Nc1cnc2ccccc2c1` showed a kinetic solubility of 3.6 µg/mL (≈ 11.7 µM). `O=C(OCc1cccc([N+](=O)[O-])c1)c1cccnc1Cl` gave a solubility (kinetic) of 5.4 µg/mL (≈ 18.5 µM). Compared with the last molecule, the solubility kinetic is about 1.5-fold higher. `O[C@@H]1CN(Cc2ccccc2Cl)CC[C@H]1N1CCOCC1` registered a solubility (kinetic) of 39.9 µg/mL (≈ 128 µM). Compared with the last molecule, the solubility kinetic is about 7.4-fold higher. Next, `ONC(=Nc1ccccc1Cl)c1ccccc1Cl`: greater than 42.2 µg/mL; `Cl.NC(=NCCc1ccccc1)c1cccc([N+](=O)[O-])c1`: greater than 45.9 µg/mL; `CC(Nc1nc(C(F)(F)F)nc2ccccc12)c1cccs1` (stereo not given): 6.5 µg/mL (≈ 20.1 µM).

With `O=[N+]([O-])c1cc(-c2cnc3ccccc3n2)ccc1Cl`, the kinetic solubility is less than 0.2 µg/mL. Next, `CCC(Oc1ccccc1F)C(=O)NCCCn1ccnc1` (stereo not given): greater than 45.8 µg/mL; `CCC1(CC)NC(=O)N(Cc2nc3ccccc3s2)C1=O`: greater than 45.5 µg/mL; `O=C(OCC(=O)N1CCCC1)c1ccc(O)cc1`: greater than 37.4 µg/mL. Next, `CC1CN(C(=O)Cn2c(=O)oc3ccccc32)CC(C)O1` (stereo not given): 43.1 µg/mL (≈ 148 µM); `C[C@@H]1CN(Cc2nc(-c3cccs3)no2)C[C@H](C)O1`: 38 µg/mL (≈ 136 µM); `COc1ccc(/C=C/C(=O)NCCCN2CCCCCC2)cc1`: greater than 47.5 µg/mL. Consider `Cc1cccc(Nc2nc(N)c([N+](=O)[O-])c(NCc3ccccc3)n2)c1`, for which the solubility (kinetic) stood at 0.7 µg/mL (≈ 2 µM).

The molecule `CC(C)OP(=O)(OC(C)C)C(Nc1ccccc1)c1cccnc1` (stereo not given) showed a solubility (kinetic) of 46.5 µg/mL (≈ 133 µM). The molecule `Cc1ccc(C)c(NC(=O)C2CCCC2)c1` showed a kinetic solubility greater than 32.6 µg/mL. Take `CC(C)CCc1noc(CN(CC2CCC2)CC2CCCO2)n1` (stereo not given): the solubility (kinetic) came to 11.9 µg/mL (≈ 37 µM). The figure for `CC(C)(C)N1CC(C(=O)O)CC1=O` (stereo not given) is greater than 27.8 µg/mL. The molecule `COc1ccc(NC(=O)c2c(N)no[n+]2[O-])cc1` returned a solubility (kinetic) of 3 µg/mL (≈ 12 µM).

As to `NS(=O)(=O)c1ccc(CCNC(=O)CCc2ccccc2)cc1`, the solubility (kinetic) came to 46.4 µg/mL (≈ 140 µM). Compared with the last molecule, the solubility kinetic is about 15-fold higher. On to `O=C(NCC(=O)N1CCCC(C(F)(F)F)C1)c1ccc(Oc2ccccc2)cc1` (stereo not given), for which the solubility (kinetic) was found to be 36.3 µg/mL (≈ 89.3 µM).

`COc1cc(C(=O)Cc2nc3ccccc3n2C)cc(OC)c1OC`: the kinetic solubility is greater than 51.1 µg/mL.

In the case of `COc1ccc(NC(=O)/C=C/c2ccc(OC(F)F)cc2)cn1`, the solubility (kinetic) is 2 µg/mL (≈ 6.24 µM). `Cc1nc2ccccc2n1CC(O)c1ccccc1` (stereo not given): the kinetic solubility is 33.9 µg/mL (≈ 134 µM). The figure for `CCCS(=O)(=O)c1ccc(COC(=O)c2ccc(NC(C)=O)cc2)cc1` is 25.5 µg/mL (≈ 67.9 µM). In turn, `Br.CC(=O)c1sc(Nc2ccc(C)cc2)nc1C` had a kinetic solubility greater than 49.1 µg/mL. Next, `Cc1ccccc1OCCN1CCCC1`: 19.5 µg/mL (≈ 95 µM). `Cc1onc(-c2c(F)cccc2Cl)c1C(=O)N=C(N)N1CC(C)OC(C)C1` (stereo not given) returned a solubility (kinetic) of 0.8 µg/mL (≈ 2.03 µM). The molecule `CC(CC(=O)Nc1ccccc1)n1ccnc1` (stereo not given) came in with a kinetic solubility greater than 34.4 µg/mL. In turn, `O=C(NCCO)Nc1ccc(Cl)cc1` came in with a kinetic solubility of 29 µg/mL (≈ 135 µM). The figure for `Cc1cc2c(Nc3ccc(O)cc3)ncnc2s1.Cl` is greater than 44.1 µg/mL; for `Cc1cc(NC(=O)CN2CCC(C)CC2)no1.O=C(O)C(=O)O` it is greater than 49.1 µg/mL; for `CC(=O)N(C)c1ccc(NC(=O)Cc2cccc3ccccc23)cc1` it is 3.9 µg/mL (≈ 11.7 µM). Take `Cc1nc(Nc2ccccc2)sc1C(=O)c1ccc(F)cc1`: the solubility (kinetic) worked out at 2.4 µg/mL (≈ 7.68 µM). In the case of `N#C/C(=C\c1ccc(Cl)c([N+](=O)[O-])c1)c1ccccn1`, the solubility (kinetic) is 2.5 µg/mL (≈ 8.75 µM).

`Cc1nc(SCc2ccc(O)c([N+](=O)[O-])c2)c([N+](=O)[O-])[nH]1` registered a solubility (kinetic) greater than 46.5 µg/mL. The figure for `N#Cc1cnc(Nc2ccc(F)cc2)nc1N` is 4.7 µg/mL (≈ 20.5 µM); for `O=C(NCC1CCCO1)c1ccc(COc2ccccc2)o1` (stereo not given) it is greater than 45.2 µg/mL; for `O=C1CCCN1CCCNC(=S)Nc1ccccc1` it is 41 µg/mL (≈ 148 µM).

On to `N#CCC(=O)Nc1ccc(C(F)(F)F)cc1N1CCOCC1`, for which the kinetic solubility was 38.3 µg/mL (≈ 122 µM).

`O=C(NN=C1CCCCC1)c1ccccc1-n1cccc1` returned a kinetic solubility greater than 42.2 µg/mL. Regarding `Cc1ccc([N+](=O)[O-])c(NC2OC(CO)C(O)C2O)c1` (stereo not given), the solubility (kinetic) is greater than 42.6 µg/mL. The molecule `CC(=O)CCn1cc([N+](=O)[O-])nc1C` displayed a solubility (kinetic) greater than 29.6 µg/mL. Take `O=C(c1ccccc1)N1CCN(CCc2ccccc2)CC1`: the kinetic solubility came to 40.7 µg/mL (≈ 138 µM). Next, `Cc1cc(C)cc(N(CC(=O)N2CCCCCC2)S(C)(=O)=O)c1`: 48.5 µg/mL (≈ 143 µM). For the molecule `O=C(Nc1ccc(F)cc1F)c1ccc2c(c1)OCCO2`, the solubility (kinetic) came out at 14 µg/mL (≈ 48.1 µM). This solubility kinetic is about 3.5-fold lower than that of the molecule before. Next, `CCc1ccc(N2CCN(CCNC(=O)Nc3ccccc3)CC2)cc1`: 1.3 µg/mL (≈ 3.69 µM). On to `CCOC(=O)c1cc2c(ccn2C)n1CC(=O)N(C)C`, for which the kinetic solubility was greater than 41.6 µg/mL.

Turning to `COc1ccc2[nH]c(C(=O)N(C)Cc3ccccc3)c(C)c2c1`, the kinetic solubility came to 9.1 µg/mL (≈ 29.5 µM). `Cc1ccccc1S(=O)Cc1ccc(C(=O)NC2CC2)o1` (stereo not given): the solubility (kinetic) was greater than 45.5 µg/mL. The molecule `O=C(CC1CCC1)Nc1cccc2c([N+](=O)[O-])cccc12` had a solubility (kinetic) of 5.8 µg/mL (≈ 20.4 µM).
